According to US11793197B2, “Use of an amphidinol for its fungicidal and/or bactericidal activity on fungi, oomycetes and/or pathogenic bacteria of plants and crop seeds” (Immunrise […], priority 2017, dated 2023):

System: F. graminearum spores
Format: cell-based, Fusarium graminearum

In the case of C=C/C=C/CC/C=C/C=C/C=C/CC/C=C/[C@H](O)[C@H](O)[C@@H]1O[C@@H]([C@H](O)[C@H](O)C(=C)CC[C@@H](O)[C@H]2C[C@@H](O)[C@@H](O)[C@H]([C@@H](O)[C@H](O)/C=C(\C)CCC(O)CC(O)C(O)C(C)CC(O)C(O)CC(C)CCC(O)CC(=O)CC(O)CCCC(O)CCCCC(O)CO)O2)C[C@@H](O)[C@H]1O (stereo partly shown) [amphidinol 18], the “antifungal activity against F. graminearum” value is reported as “has antifungal activity”.
